Data from US20240376085A1 (Janssen Pharmaceutica NV, priority 2021, published 2024).

Experiments:
[1] = biological target: T1, IL-17A : IL-17RA binding (Homo sapiens, UniProt Q16552, K93Q); experiment: IL-17A(FLAG-tagged):IL-17RA(His-tagged) binding disruption Eu-HTRF assay, Protocol 1; settings: FLAG-IL-17A 2.5 nM at 2x final concentration; average if tested more than once
T1 construct: Name: IL-17A-Flag
Outline: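 IC50 came from a one-site competition fit of the acceptor/donor (665/620 nm) HTRF ratio. His-tagged IL-17RA, Eu-anti-FLAG and D2-anti-His were added after a 1 h rt compound preincubation with FLAG-tagged IL-17A dimer in PBS/0.01% Triton X-100, followed by 2 h at rt before reading.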

[2] = tested on: IL-17A-induced G-CSF production in human normal keratinocyte (NHK); experiment: NHK assay: IL-17A-induced G-CSF production in normal human keratinocytes; type: cell-based; settings: Homo sapiens, Keratinocyte, 24 h, IL-17A 5 ng/mL, average if tested more than once
Outline: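 Compound titrations are first mixed with recombinant human IL-17A for 1 h at room temperature. The mixture goes onto adult normal human keratinocytes (final IL-17A 5 ng/mL, 5% FBS, 0.2% DMSO) for 24 h at 37 °C. Secreted G-CSF is then measured by HTRF and IC50 fitted.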

T1 sequence (Q16552 with tags, fused parts or gaps K93Q): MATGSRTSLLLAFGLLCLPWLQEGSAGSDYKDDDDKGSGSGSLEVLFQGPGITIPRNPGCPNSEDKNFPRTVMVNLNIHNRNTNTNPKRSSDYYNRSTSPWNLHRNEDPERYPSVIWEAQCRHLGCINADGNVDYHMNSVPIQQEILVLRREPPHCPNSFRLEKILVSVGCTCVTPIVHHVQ

Row | Compound | IC50 [1] | IC50 [2]
1 | CC(C)n1cncc1C(=O)N[C@H](c1nc2cc([C@@H](C)NC(=O)CCC(F)(F)F)ccc2[nH]1)C1CCC(F)(F)CC1 [Example 208, N—((S)-(4,4-Difluorocyclohexyl)(5-((R)-1-(4,4,4-trifluorobutanamido)ethyl)-1H-benzo[d]imidazol-2-yl)methyl)-1-isopropyl-1H-imidazole-5-carboxamide] | > 100 nM | > 100 nM
2 | C[C@@H](NC(=O)CCC(F)(F)F)c1ccc2[nH]c([C@@H](NC(=O)c3conc3C3CC3)C3CCC(F)(F)CC3)nc2c1 [Example 209, 3-Cyclopropyl-N—((S)-(4,4-difluorocyclohexyl)(5-((R)-1-(4,4,4-trifluorobutanamido)ethyl)-1H-benzo[d]imidazol-2-yl)methyl)isoxazole-4-carboxamide] | 50 to 100 nM | < 50 nM
3 | C[C@@H](NC(=O)CCC(F)(F)F)c1ccc2[nH]c([C@@H](NC(=O)c3ccn4c3CCC4)C3CCC(F)(F)CC3)nc2c1 [Example 210, N—((S)-(4,4-Difluorocyclohexyl)(5-((R)-1-(4,4,4-trifluorobutanamido)ethyl)-1H-benzo[d]imidazol-2-yl)methyl)-2,3-dihydro-1H-pyrrolizine-7-carboxamide] | > 100 nM | > 100 nM
4 | C[C@@H](NC(=O)CCC(F)(F)F)c1ccc2[nH]c([C@@H](NC(=O)c3cnc4n3CCC4)C3CCC(F)(F)CC3)nc2c1 [Example 211, N—((S)-(4,4-Difluorocyclohexyl)(5-((R)-1-(4,4,4-trifluorobutanamido)ethyl)-1H-benzo[d]imidazol-2-yl)methyl)-6,7-dihydro-5H-pyrrolo[1,2-a]imidazole-3-carboxamide] | > 100 nM | > 100 nM
5 | C[C@@H](NC(=O)CCC(F)(F)F)c1ccc2[nH]c([C@@H](NC(=O)c3cnn4c3CCC4)C3CCC(F)(F)CC3)nc2c1 [Example 212, N—((S)-(4,4-Difluorocyclohexyl)(5-((R)-1-(4,4,4-trifluorobutanamido)ethyl)-1H-benzo[d]imidazol-2-yl)methyl)-5,6-dihydro-4H-pyrrolo[1,2-b]pyrazole-3-carboxamide] | > 100 nM | > 100 nM
6 | CC(C)n1cccc1C(=O)N[C@H](c1nc2cc([C@@H](C)NC(=O)CCC(F)(F)F)ccc2[nH]1)C1CCC(F)(F)CC1 [Example 213, N—((S)-(4,4-Difluorocyclohexyl)(5-((R)-1-(4,4,4-trifluorobutanamido)ethyl)-1H-benzo[d]imidazol-2-yl)methyl)-1-isopropyl-1H-pyrrole-2-carboxamide] | < 50 nM | < 50 nM
7 | C[C@@H](NC(=O)CCC(F)(F)F)c1ccc2[nH]c([C@@H](NC(=O)c3conc3CCC(F)(F)F)C3CCC(F)(F)CC3)nc2c1 [Example 214, N—((S)-(4,4-Difluorocyclohexyl)(5-((R)-1-(4,4,4-trifluorobutanamido)ethyl)-1H-benzo[d]imidazol-2-yl)methyl)-3-(3,3,3-trifluoropropyl)isoxazole-4-carboxamide] | 50 to 100 nM | < 50 nM
8 | C[C@@H](NC(=O)CCC(F)(F)F)c1ccc2[nH]c([C@@H](NC(=O)c3cc(CCC(F)(F)F)no3)C3CCC(F)(F)CC3)nc2c1 [Example 215, N—((S)-(4,4-Difluorocyclohexyl)(5-((R)-1-(4,4,4-trifluorobutanamido)ethyl)-1H-benzo[d]imidazol-2-yl)methyl)-3-(3,3,3-trifluoropropyl)isoxazole-5-carboxamide] | > 100 nM | > 100 nM

Second part, led by results:

Row | IC50 [1] | Compound | IC50 [2]
9 | > 100 nM | C[C@@H](NC(=O)CCC(F)(F)F)c1ccc2[nH]c([C@@H](NC(=O)c3cncn3CCC(F)(F)F)C3CCC(F)(F)CC3)nc2c1 [Example 216, N—((S)-(4,4-Difluorocyclohexyl)(5-((R)-1-(4,4,4-trifluorobutanamido)ethyl)-1H-benzo[d]imidazol-2-yl)methyl)-1-(3,3,3-trifluoropropyl)-1H-imidazole-5-carboxamide] | > 100 nM
10 | > 100 nM | C[C@@H](NC(=O)CCC(F)(F)F)c1ccc2[nH]c([C@@H](NC(=O)c3cc(CCC(F)(F)F)on3)C3CCC(F)(F)CC3)nc2c1 [Example 217, N—((S)-(4,4-Difluorocyclohexyl)(5-((R)-1-(4,4,4-trifluorobutanamido)ethyl)-1H-benzo[d]imidazol-2-yl)methyl)-5-(3,3,3-trifluoropropyl)isoxazole-3-carboxamide] | > 100 nM
11 | 50 to 100 nM | C[C@@H](NC(=O)CCC(F)(F)F)c1ccc2[nH]c([C@@H](NC(=O)c3ncnn3CCC(F)(F)F)C3CCC(F)(F)CC3)nc2c1 [Example 220, N—((S)-(4,4-Difluorocyclohexyl)(5-((R)-1-(4,4,4-trifluorobutanamido)ethyl)-1H-benzo[d]imidazol-2-yl)methyl)-1-(3,3,3-trifluoropropyl)-1H-1,2,4-triazole-5-carboxamide] | > 100 nM
12 | > 100 nM | C[C@@H](NC(=O)CCC(F)(F)F)c1ccc2[nH]c([C@@H](NC(=O)c3ccc(CCC(F)(F)F)s3)C3CCC(F)(F)CC3)nc2c1 [Example 221, N—((S)-(4,4-Difluorocyclohexyl)(5-((R)-1-(4,4,4-trifluorobutanamido)ethyl)-1H-benzo[d]imidazol-2-yl)methyl)-5-(3,3,3-trifluoropropyl)thiophene-2-carboxamide] | > 100 nM
13 | > 100 nM | C[C@@H](NC(=O)CCC(F)(F)F)c1ccc2[nH]c([C@@H](NC(=O)c3cnc(CCC(F)(F)F)s3)C3CCC(F)(F)CC3)nc2c1 [Example 222, N—((S)-(4,4-Difluorocyclohexyl)(5-((R)-1-(4,4,4-trifluorobutanamido)ethyl)-1H-benzo[d]imidazol-2-yl)methyl)-2-(3,3,3-trifluoropropyl)thiazole-5-carboxamide] | > 100 nM
14 | > 100 nM | C[C@@H](NC(=O)CCC(F)(F)F)c1ccc2[nH]c([C@@H](NC(=O)c3csc(CCC(F)(F)F)n3)C3CCC(F)(F)CC3)nc2c1 [Example 224, N—((S)-(4,4-Difluorocyclohexyl)(5-((R)-1-(4,4,4-trifluorobutanamido)ethyl)-1H-benzo[d]imidazol-2-yl)methyl)-2-(3,3,3-trifluoropropyl)thiazole-4-carboxamide] | > 100 nM
15 | > 100 nM | C[C@@H](NC(=O)CCC(F)(F)F)c1ccc2[nH]c([C@@H](NC(=O)c3coc(CCC(F)(F)F)n3)C3CCC(F)(F)CC3)nc2c1 [Example 225, N—((S)-(4,4-Difluorocyclohexyl)(5-((R)-1-(4,4,4-trifluorobutanamido)ethyl)-1H-benzo[d]imidazol-2-yl)methyl)-2-(3,3,3-trifluoropropyl)oxazole-4-carboxamide] | > 100 nM
16 | > 100 nM | C[C@@H](NC(=O)CCC(F)(F)F)c1ccc2[nH]c([C@@H](NC(=O)c3cn(CCC(F)(F)F)cn3)C3CCC(F)(F)CC3)nc2c1 [Example 226, N—((S)-(4,4-Difluorocyclohexyl)(5-((R)-1-(4,4,4-trifluorobutanamido)ethyl)-1H-benzo[d]imidazol-2-yl)methyl)-1-(3,3,3-trifluoropropyl)-1H-imidazole-4-carboxamide] | > 100 nM
17 | > 100 nM | C[C@@H](NC(=O)CCC(F)(F)F)c1ccc2[nH]c([C@@H](NC(=O)c3nccn3CCC(F)(F)F)C3CCC(F)(F)CC3)nc2c1 [Example 227, N—((S)-(4,4-Difluorocyclohexyl)(5-((R)-1-(4,4,4-trifluorobutanamido)ethyl)-1H-benzo[d]imidazol-2-yl)methyl)-1-(3,3,3-trifluoropropyl)-1H-imidazole-2-carboxamide] | > 100 nM
